The values that follow are results of earlier work, collected in US20100209368A1, “METHOD AND PREPARATION FOR TREATING BALDNESS” (priority 2009, published 2010).

Assay in data set [1]: not given
This is another data set of the same source.

In the case of `O=C(OOC(=O)c1ccccc1)c1ccccc1` [Benzoyl peroxide, benzoyl peroxide], the “stability upon addition of water or ethanol” value (PEG or isopropyl myristate with added water or ethanol) is reported as “greatly increased”. Where the note is “pure PEG or isopropyl myristate”, the “stability in pure solvents” value is on record as “not stable”. The solubility in ethanol result in data set [1] (ethanol) is on record as “slight solubility”. Further, the “solubility in isopropyl myristate” value in data set [1] (isopropyl myristate) is on record as “soluble”. Moreover, the “solubility in polyethylene glycol (PEG)” value in data set [1] (polyethylene glycol) is “soluble”. The solubility in water result in data set [1] was “low solubility”.
With zinc pyrithione, the solubility in water result in data set [1] was “sparingly soluble”.
